Results from patent publication EP3345917A1, “ANTIPROTOZOAL COMPOUNDS” (Bacoba AG, priority 2017, dated 2018).
Non-standard residues stand in square brackets, D forms with d. Residues, ends and D or L forms follow the SMILES beside them. *: point of attachment. Benzoyl(4-CF3) = O=C(c1ccc(C(F)(F)F)cc1)*; NH((S)CH(Me)CH2NMe2) = C[C@@H](CN(C)C)N*; Benzoyl(4-OMe) = COc1ccc(C(=O)*)cc1; Gly(octyl) = CCCCCCCC[C@H](N)C(=O)O; Oxazole4CO(2-Me) = Cc1nc(C(=O)*)co1; Thiophene2carbonyl = O=C(c1cccs1)*; hCha = N[C@@H](CCC1CCCCC1)C(=O)O; Pyrrole2CO = O=C(c1ccc[nH]1)*; X20 = O=C(c1ccc2[nH]ccc2c1)*; X15 = O=C(c1ccc2cccnc2c1)*; X17 = C[C@@H](CN1CCOCC1)N*; X21 = O=C(c1ccc2ocnc2c1)*; X4 = O=C(C1CCc2ccccc2C1)*; Aib = CC(C)(N)C(=O)O; βAla = NCCC(=O)O

What was measured:
Type in all cases: cell-based
Plasmodium falciparum = test: 3H-hypoxanthine incorporation assay against Plasmodium falciparum; conditions: In vitro inhibition, read-out: P.falc NF5
Description: (§1) Tests were done in triplicate.
IC50 values were calculated by linear interpolation.

[1] = tested on: Trypanosoma brucei rhodesiense (STIB 900 strain); test: Alamar Blue assay against Trypanosoma brucei rhodesiense grown in axenic medium; conditions: In vitro inhibition, read-out: T.b.rhod.
How it was run: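 T. b. rhodesiense STIB 900 cultured in axenic medium and exposed to samples in an Alamar Blue viability assay, run in triplicate. IC50 calculated from the readout; melarsoprol served as reference drug.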

[2] = tested on: intracellular Leishmania donovani (L.don. InMac); test: Intracellular Leishmania donovani assay (L.don. InMac); conditions: In vitro inhibition
Description: as §1

[3] = tested on: Axenically grown Leishmania donovani amastigotes (strain MHOM/ET/67/L82); test: Axenic Leishmania donovani amastigote resazurin assay; conditions: In vitro inhibition, read-out: L.don. ax
How it was run: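 Strain MHOM/ET/67/L82 amastigotes grown axenically and tested in triplicate by resazurin assay. Plates developed 2-4 hours, fluorescence read at 536 nm excitation/588 nm emission and expressed as percentage of negative control.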

[4] = tested on: Trypanosoma cruzi trypomastigote forms (Tulahuen strain); test: Intracellular Trypanosoma cruzi assay in L6-cells, beta-galactosidase/CPRG readout; conditions: In vitro inhibition, read-out: T.cruzi.
How it was run: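 L6 rat myoblasts infected with Tulahuen C2C4 LacZ T. cruzi; after incubation, CPRG/Nonidet substrate added and colour developed 2–6 h. Absorbance at 540 nm; IC50 calculated; triplicate tests.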

SMILES: CCCCCCCC[C@H](NC(=O)[C@@H]1CCCN1C(=O)c1cccs1)C(=O)N[C@@H](CC(C)C)C(=O)NC(C)(C)C(=O)N[C@@H](CC(C)C)C(=O)N[C@@H](CC(C)C)C(=O)NC(C)(C)C(=O)NC(C)(C)C(=O)NCCC(=O)N[C@@H](C)CN(C)C [Compound 5904, (2S)-N-[(1S)-1-[(1-{[(1S)-1-{[(1S)-1-{[1-({1-[(2-{[(2S)-1-(dimethylamino)propan-2-yl]carbamoyl}ethyl)carbamoyl]-1-methylethyl}carbamoyl)-1-methylethyl]carbamoyl}-3-methylbutyl]carbamoyl}-3-methylbutyl]carbamoyl}-1-methylethyl)carbamoyl]-3-methylbutyl]-2-{[(2S)-1-(thiophene-2-carbonyl)pyrrolidin-2-yl]formamido}decanamide] (Thiophene2carbonyl-P[Gly(octyl)]L[Aib]LL[Aib][Aib][βAla]-{NH((S)CH(Me)CH2NMe2)})
- IC50 (Plasmodium falciparum): 32.1 µM
- IC50 [1]: 0.0002 µM
- IC50 [2]: 42.5 µM
- IC50 [3]: 42.5 µM
- IC50 [4]: 36.3 µM

SMILES: CCCCCCCC[C@H](NC(=O)[C@@H]1CCCN1C(=O)c1coc(C)n1)C(=O)N[C@@H](CC(C)C)C(=O)NC(C)(C)C(=O)N[C@@H](CC(C)C)C(=O)N[C@@H](CC(C)C)C(=O)NC(C)(C)C(=O)NC(C)(C)C(=O)NCCC(=O)N[C@@H](C)CN(C)C [Compound 5905, (2S)-N-[(1S)-1-[(1-{[(1S)-1-{[(1S)-1-{[1-({1-[(2-{[(2S)-1-(dimethylamino)propan-2-yl]carbamoyl}ethyl)carbamoyl]-1-methylethyl}carbamoyl)-1-methylethyl]carbamoyl}-3-methylbutyl]carbamoyl}-3-methylbutyl]carbamoyl}-1-methylethyl)carbamoyl]-3-methylbutyl]-2-{[(2S)-1-(2-methyl-1,3-oxazole-4-carbonyl)pyrrolidin-2-yl]formamido}decanamide] ({Oxazole4CO(2-Me)}-P[Gly(octyl)]L[Aib]LL[Aib][Aib][βAla]-{NH((S)CH(Me)CH2NMe2)})
- IC50 (Plasmodium falciparum): 26.4 µM
- IC50 [1]: 0.0002 µM
- IC50 [2]: 42.4 µM
- IC50 [3]: 32 µM
- IC50 [4]: 42.5 µM

SMILES: CCCCCCCC[C@H](NC(=O)[C@@H]1CCCN1C(=O)C1CCc2ccccc2C1)C(=O)N[C@@H](CC(C)C)C(=O)NC(C)(C)C(=O)N[C@@H](CC(C)C)C(=O)N[C@@H](CC(C)C)C(=O)NC(C)(C)C(=O)NC(C)(C)C(=O)NCCC(=O)N[C@@H](C)CN(C)C (stereo partly drawn) [Compound 5910, (2S)-N-[(1S)-1-[(1-{[(1S)-1-{[(1S)-1-{[1-({1-[(2-{[(2S)-1-(dimethylamino)propan-2-yl]carbamoyl}ethyl)carbamoyl]-1-methylethyl}carbamoyl)-1-methylethyl]carbamoyl}-3-methylbutyl]carbamoyl}-3-methylbutyl]carbamoyl}-1-methylethyl)carbamoyl]-3-methylbutyl]-2-{[(2S)-1-(1,2,3,4-tetrahydronaphthalene-2-carbonyl)pyrrolidin-2-yl]formamido}decanamide] (X4-P[Gly(octyl)]L[Aib]LL[Aib][Aib][βAla]-{NH((S)CH(Me)CH2NMe2)})
- IC50 (Plasmodium falciparum): 42.6 µM
- IC50 [1]: 24.8 µM
- IC50 [2]: 42.6 µM
- IC50 [3]: 42.6 µM
- IC50 [4]: 0.0411 µM

SMILES: CCCCCCCC[C@H](NC(=O)[C@@H]1CCCN1C(=O)c1ccc2[nH]ccc2c1)C(=O)N[C@@H](CC(C)C)C(=O)NC(C)(C)C(=O)N[C@@H](CC(C)C)C(=O)N[C@@H](CC(C)C)C(=O)NC(C)(C)C(=O)NC(C)(C)C(=O)NCCC(=O)N[C@@H](C)CN(C)C [Compound 5911, (2S)-N-[(1S)-1-[(1-{[(1S)-1-{[(1S)-1-{[1-({1-[(2-{[(2S)-1-(dimethylamino)propan-2-yl]carbamoyl}ethyl)carbamoyl]-1-methylethyl}carbamoyl)-1-methylethyl]carbamoyl}-3-methylbutyl]carbamoyl}-3-methylbutyl]carbamoyl}-1-methylethyl)carbamoyl]-3-methylbutyl]-2-{[(2S)-1-(1H-indole-5-carbonyl)pyrrolidin-2-yl]formamido}decanamide] (X20-P[Gly(octyl)]L[Aib]LL[Aib][Aib][βAla]-{NH((S)CH(Me)CH2NMe2)})
- IC50 (Plasmodium falciparum): 42.5 µM
- IC50 [1]: 25.6 µM
- IC50 [2]: 0.0348 µM
- IC50 [3]: 0.0144 µM
- IC50 [4]: 0.034 µM

SMILES: CCCCCCCC[C@H](NC(=O)[C@@H]1CCCN1C(=O)c1ccc(OC)cc1)C(=O)N[C@@H](CC(C)C)C(=O)NC(C)(C)C(=O)N[C@@H](CC(C)C)C(=O)N[C@@H](CC(C)C)C(=O)NC(C)(C)C(=O)NC(C)(C)C(=O)NCCC(=O)N[C@@H](C)CN(C)C [Compound 5912, (2S)-N-[(1S)-1-[(1-{[(1S)-1-{[(1S)-1-{[1-({1-[(2-{[(2S)-1-(dimethylamino)propan-2-yl]carbamoyl}ethyl)carbamoyl]-1-methylethyl}carbamoyl)-1-methylethyl]carbamoyl}-3-methylbutyl]carbamoyl}-3-methylbutyl]carbamoyl}-1-methylethyl)carbamoyl]-3-methylbutyl]-2-{[(2S)-1-(4-methoxybenzoyl)pyrrolidin-2-yl]formamido}decanamide] ({Benzoyl(4-OMe)}-P[Gly(octyl)]L[Aib]LL[Aib][Aib][βAla]-{NH((S)CH(Me)CH2NMe2)})
- IC50 (Plasmodium falciparum): 20.9 µM
- IC50 [1]: 0.0003 µM
- IC50 [2]: 42.6 µM
- IC50 [3]: 41.4 µM
- IC50 [4]: 17.8 µM

SMILES: CCCCCCCC[C@H](NC(=O)[C@@H]1CCCN1C(=O)c1ccc(C(F)(F)F)cc1)C(=O)N[C@@H](CC(C)C)C(=O)NC(C)(C)C(=O)N[C@@H](CC(C)C)C(=O)N[C@@H](CC(C)C)C(=O)NC(C)(C)C(=O)NC(C)(C)C(=O)NCCC(=O)N[C@@H](C)CN(C)C [Compound 5936, (2S)-N-[(1S)-1-[(1-{[(1S)-1-{[(1S)-1-{[1-({1-[(2-{[(2S)-1-(dimethylamino)propan-2-yl]carbamoyl}ethyl)carbamoyl]-1-methylethyl}carbamoyl)-1-methylethyl]carbamoyl}-3-methylbutyl]carbamoyl}-3-methylbutyl]carbamoyl}-1-methylethyl)carbamoyl]-3-methylbutyl]-2-{[(2S)-1-[4-(trifluoromethyl)benzoyl]pyrrolidin-2-yl]formamido}decanamide] ({Benzoyl(4-CF3)}-P[Gly(octyl)]L[Aib]LL[Aib][Aib][βAla]-{NH((S)CH(Me)CH2NMe2)})
- IC50 (Plasmodium falciparum): 31.3 µM
- IC50 [1]: 0.0007 µM
- IC50 [2]: < 0.0332 µM
- IC50 [3]: 11.7 µM
- IC50 [4]: 0.0526 µM

SMILES: CCCCCCCC[C@H](NC(=O)[C@@H]1CCCN1C(=O)c1ccc2ocnc2c1)C(=O)N[C@@H](CC(C)C)C(=O)NC(C)(C)C(=O)N[C@@H](CC(C)C)C(=O)N[C@@H](CC(C)C)C(=O)NC(C)(C)C(=O)NC(C)(C)C(=O)NCCC(=O)N[C@@H](C)CN(C)C [Compound 5937] (X21-P[Gly(octyl)]L[Aib]LL[Aib][Aib][βAla]-{NH((S)CH(Me)CH2NMe2)})
- IC50 (Plasmodium falciparum): 27.6 µM
- IC50 [1]: 43.5 µM
- IC50 [2]: 0.0585 µM
- IC50 [3]: 0.0212 µM
- IC50 [4]: 0.0454 µM

SMILES: CCCCCCCC[C@H](NC(=O)[C@@H]1CCCN1C(=O)c1ccc2cccnc2c1)C(=O)N[C@@H](CC(C)C)C(=O)NC(C)(C)C(=O)N[C@@H](CC(C)C)C(=O)N[C@@H](CC(C)C)C(=O)NC(C)(C)C(=O)NC(C)(C)C(=O)NCCC(=O)N[C@@H](C)CN(C)C [Compound 5938, (2S)-N-[(1S)-1-[(1-{[(1S)-1-{[(1S)-1-{[1-({1-[(2-{[(2S)-1-(dimethylamino)propan-2-yl]carbamoyl}ethyl)carbamoyl]-1-methylethyl}carbamoyl)-1-methylethyl]carbamoyl}-3-methylbutyl]carbamoyl}-3-methylbutyl]carbamoyl}-1-methylethyl)carbamoyl]-3-methylbutyl]-2-{[(2S)-1-(quinoline-7-carbonyl)pyrrolidin-2-yl]formamido}decanamide] (X15-P[Gly(octyl)]L[Aib]LL[Aib][Aib][βAla]-{NH((S)CH(Me)CH2NMe2)})
- IC50 (Plasmodium falciparum): 13.2 µM
- IC50 [1]: 0.0005 µM
- IC50 [2]: 0.0378 µM
- IC50 [3]: 42.4 µM
- IC50 [4]: 42.4 µM

SMILES: CCCCCCCC[C@H](NC(=O)[C@@H]1CCCN1C(=O)c1ccc[nH]1)C(=O)N[C@@H](CC(C)C)C(=O)NC(C)(C)C(=O)N[C@@H](CC(C)C)C(=O)N[C@@H](CC(C)C)C(=O)NC(C)(C)C(=O)NC(C)(C)C(=O)NCCC(=O)N[C@@H](C)CN(C)C [Compound 5939, (2S)-N-[(1S)-1-[(1-{[(1S)-1-{[(1S)-1-{[1-({1-[(2-{[(2S)-1-(dimethylamino)propan-2-yl]carbamoyl}ethyl)carbamoyl]-1-methylethyl}carbamoyl)-1-methylethyl]carbamoyl}-3-methylbutyl]carbamoyl}-3-methylbutyl]carbamoyl}-1-methylethyl)carbamoyl]-3-methylbutyl]-2-{[(2S)-1-(1H-pyrrole-2-carbonyl)pyrrolidm-2-yl]formamido}decanamide] (Pyrrole2CO-P[Gly(octyl)]L[Aib]LL[Aib][Aib][βAla]-{NH((S)CH(Me)CH2NMe2)})
- IC50 (Plasmodium falciparum): 36.2 µM
- IC50 [1]: 0.0001 µM
- IC50 [2]: 0.209 µM
- IC50 [3]: 36 µM
- IC50 [4]: 42.5 µM

SMILES: Cc1nc(C(=O)N2CCC[C@H]2C(=O)N[C@@H](CCC2CCCCC2)C(=O)N[C@@H](CC(C)C)C(=O)NC(C)(C)C(=O)N[C@@H](CC(C)C)C(=O)N[C@@H](CC(C)C)C(=O)NC(C)(C)C(=O)NC(C)(C)C(=O)NCCC(=O)N[C@@H](C)CN2CCOCC2)co1 [Compound 6026] ({Oxazole4CO(2-Me)}-P[hCha]L[Aib]LL[Aib][Aib][βAla]-X17)
- IC50 (Plasmodium falciparum): 0.038 µM
- IC50 [1]: 41.4 µM
- IC50 [2]: 0.0507 µM
- IC50 [3]: 44.7 µM
- IC50 [4]: 0.422 µM
